Assay results published in patent publication EP0796843B1, “1,25-dihydroxy-16,22,23-trisdehydro-cholecalciferol derivatives” (F. HOFFMANN-LA ROCHE AG, priority 1996, dated 1997).

Key:
[1] = Calcium tolerance test in mice (highest tolerated dose, body weight); type: in vivo; details: daily subcutaneous administration for 4 consecutive days, dose resulting in zero weight gain during 5 day treatment period
Source text: Profound changes in calcium homeostasis strongly affect the weight development of mice.
Mice (25-30 g body weight) received daily subcutaneous administrations of the compound for 4 consecutive days. Body weight was registered just before and at the end of a […] treatment period. The "highest tolerated dose" (HTD) is the dose which results in zero weight gain during this treatment period.

HL-60 cells = assay: Induction of HL-60 cell differentiation (NBT reduction); type: cell-based; details: 3 days, concentration leading to 50% of maximal differentiation achieved with 100-1000 nM calcitriol, read-out: ED50 (the source's name)
Human T-cell = assay: Inhibition of T-cell proliferation (3H-thymidine, PHA-stimulated); type: cell-based
Description: Mononuclear cells were isolated from venous blood of healthy donors by centrifugation of buffy coat leucocytes atop Ficoll-Paque. The lymphocytes (70-80% T-cells) were suspended in RPMI 1640 medium supplemented with 10% FCS and adjusted to 10^6 cells/ml. […] of this cell suspension were seeded into flat-bottom microtiter wells and stimulated with […] of PHA. Immediately after seeding, the test compounds listed below in Table V were added to yield final concentrations of between 1x10^-11 M -1 x 10^-6 M. All tests were run in the quadruplicates.
After 3 and 4 days, ^3H-thymidine (5 Ci/mmol) was added to wells at a concentration of […]. Cells were pulse-labeled for the last 6 hours of the growth period. Cells were then harvested on to a 96 well filter plate using a cell harvester. After drying at […] under vacuum for 20-30 minutes, 20 µl of scintillor were added and the radioactivity bound to the filters was counted. Values are expressed as percent controls (samples without test compounds). The concentration leading to 50% of control values is determined graphically and given as IC50 (inhibiting concentration) in Table V. TABLE V

Sebaceous cells = assay: Inhibition of sebaceous cell proliferation (cell count); details: adult human sebaceous cells in vitro, amount necessary to inhibit proliferation by 50% vs vehicle control
Human T-cells = assay: Inhibition of γ-interferon release in PHA-stimulated T-cells (ELISA); type: cell-based
HaCaT cell line = assay: Inhibition of keratinocyte proliferation (3H-thymidine uptake); type: cell-based, human; details: HaCaT cells, 3H-thymidine incorporation after 6 days of culture, concentration leading to 50% of control values
[2] = human lymphocytes (70-80% T-cells) stimulated with PHA, 3H-thymidine after 3 and 4 days
[3] = human lymphocytes (70-80% T-cells) stimulated with PHA, IFN-g by ELISA on days 3 and 4

SMILES | HTD [1] | EC50 (HL-60 cells) | IC50 (Human T-cell; [2]) | ED50 (Sebaceous cells; listed as 1a,25-dihydroxy-16,22R,23-triene-cholecalciferol) | IC50 (Human T-cells; [3]) | IC50 (HaCaT cell line) | ED50 (Sebaceous cells; listed as 1a,25-dihydroxy-16,22S,23-triene-cholecalciferol) | IC50 (Human T-cell; Homo sapiens, T-cell) | ED50 (Sebaceous cells) | IC50 (Human T-cells; Homo sapiens, T-cell) | IC50 (HaCaT cell line; Homo sapiens)
C=C1/C(=C\C=C2/CCC[C@]3(C)C([C@H](C)C=C=CC(C)(C)O)=CC[C@@H]23)C[C@@H](O)C[C@@H]1O [1,25-Dihydroxy-16,22R,23-triene-cholecalciferol] | 2.5 µg/kg | 0.22 nM | 0.55 nM | 1 nM | 0.05 nM | 0.01 nM |  |  |  |  | 
C=C1/C(=C\C=C2/CCC[C@]3(C)C([C@H](C)C=C=CC(C)(C)O)=CC[C@@H]23)C[C@@H](O)C[C@@H]1O [1,25-Dihydroxy-16,22S,23-triene-cholecalciferol] | 50.0 µg/kg | 4.8 nM | 6 nM |  | 3 nM | 40 nM | 10 nM |  |  |  | 
C=C1/C(=C\C=C2/CCC[C@]3(C)[C@@H]([C@H](C)CCCC(C)(C)O)CC[C@@H]23)C[C@@H](O)C[C@@H]1O [1,25-Dihydroxy-cholecalciferol, reference compound] | 0.5 µg/kg |  |  |  |  |  |  | 10 nM | 50 nM | 0.8 nM | 55 nM
